According to US11806350B2, “Prevention and/or treatment of CNS disorders” (ILDONG PHARMACEUTICAL CO., LTD., priority 2020, dated 2023):
pKi: −log10 of the molar value.

Assays:
[1] = target: T1, Human recombinant adenosine A1 receptors (Homo sapiens, UniProt P30542); test: Human adenosine A1 receptor binding assay ([3H]DPCPX); conditions: membranes of CHO-K1 cells, 1 nM [3H]DPCPX, 90 minutes at 25° C.; read-out: hAl Ki
T1 construct: expressed in transfected cells; host or cells: CHO-K1 cells (membrane preparation)
T1 sequence (P30542 1-326): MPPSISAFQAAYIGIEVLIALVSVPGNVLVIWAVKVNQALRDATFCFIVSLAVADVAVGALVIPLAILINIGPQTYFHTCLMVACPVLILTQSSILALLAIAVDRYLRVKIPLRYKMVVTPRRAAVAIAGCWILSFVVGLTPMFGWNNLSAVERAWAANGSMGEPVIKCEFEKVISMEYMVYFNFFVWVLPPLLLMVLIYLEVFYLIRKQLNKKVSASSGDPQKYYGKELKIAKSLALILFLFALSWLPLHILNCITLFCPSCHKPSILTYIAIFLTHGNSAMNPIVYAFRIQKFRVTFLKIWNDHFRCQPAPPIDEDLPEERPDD
Description: 2.1 Human Adenosine A1 Receptor Binding Assay
Test compound is weighed, dissolved in DMSO to make a stock solution of 10 mM, diluted with DMSO to prepare working solutions, then 100-fold diluted to the indicated concentrations. Human recombinant adenosine A1 receptors expressed in CHO-K1 cells were used to prepare membranes in incubation buffer (20 mM HEPES (4-(2-hydroxyethyl)-1-piperazineethanesulfonic acid) pH 7.4, 10 mM MgCl2, 100 mM NaCl). Test compound or vehicle (2.2 μL) was added in 200 μL of membranes and incubated with 20 μL of 1 nM [^3H] DPCPX (8-cyclopentyl-1,3-dipropylxanthine) for 90 minutes at 25° C. Non-specific binding was estimated in the presence of 100 μM R(−)-PIA ((R)—N-(1-methyl-2-phenylethyl)adenosine). The incubation was stopped by vacuum filtration onto 0.3% PEI (polyethylenimine) presoaked GF/B filters using a harvester followed by four washes with ice-cold 50 mM Tris-HCl, pH 7.4, and the radioactivity on GF/B filtermats counted in a scintillation counter (PerkinElmer Topcount™) to determine [^3H] DPCPX specifically bound. Final concentration of vehicle DMSO is 1%.
(§1) Data is fitted using the non-linear curve fitting routines in Meth-IQ software (ID Business Solutions Ltd., UK). IC50 is converted to Ki by Cheng-Prusoff equation: Ki=IC50/(1+[L]/KD) where [L] is concentration of radiolabeled ligand used in the assay.

[2] = target: T2, Human recombinant adenosine A2A receptors (Homo sapiens, UniProt P29274); test: Human adenosine A2A receptor binding assay ([3H]CGS-21680); conditions: for pKi: membranes of HEK-293 cells, 50 nM [3H]CGS-21680, 90 minutes at 25° C., read-out: hA2A Ki; for activity as dual antagonists of both A2A and A1 receptors: summary in words of the A2A and A1 binding results of Table 2
T2 construct: expressed in transfected cells; host or cells: HEK-293 cells (membrane preparation)
Description: 2.2 Human Adenosine A2A Receptor Binding Assay
Test compound is weighed, dissolved in DMSO to make a stock solution of 10 mM, diluted with DMSO to prepare working solutions, then 100-fold diluted to the indicated concentrations. Human recombinant adenosine A2A receptors expressed in HEK-293 cells were used to prepare membranes in incubation buffer (50 mM Tris-HCl, pH 7.4, 10 mM MgCl2, 1 mM EDTA, 2 U/ml Adenosine Deaminase). Test compound or vehicle (2.2 μL) was added in 200 μL of membranes and incubated with 20 μL of 50 nM [^3H] […] Non-specific binding was estimated in the presence of 50 μM NECA (5′-N-ethylcarboxamidoadenosine). The incubation was stopped by vacuum filtration onto 0.3% PEI (polyethylenimine) presoaked GF/B filters using a harvester followed by four washes with ice-cold 50 mM Tris-HCl, pH 7.4, and the radioactivity on GF/B filtermats counted in a scintillation counter (PerkinElmer TOPCOUNT™) to determine [^3H] […] Final concentration of vehicle DMSO is 1%.
as §1

T2 sequence (P29274 whole entry): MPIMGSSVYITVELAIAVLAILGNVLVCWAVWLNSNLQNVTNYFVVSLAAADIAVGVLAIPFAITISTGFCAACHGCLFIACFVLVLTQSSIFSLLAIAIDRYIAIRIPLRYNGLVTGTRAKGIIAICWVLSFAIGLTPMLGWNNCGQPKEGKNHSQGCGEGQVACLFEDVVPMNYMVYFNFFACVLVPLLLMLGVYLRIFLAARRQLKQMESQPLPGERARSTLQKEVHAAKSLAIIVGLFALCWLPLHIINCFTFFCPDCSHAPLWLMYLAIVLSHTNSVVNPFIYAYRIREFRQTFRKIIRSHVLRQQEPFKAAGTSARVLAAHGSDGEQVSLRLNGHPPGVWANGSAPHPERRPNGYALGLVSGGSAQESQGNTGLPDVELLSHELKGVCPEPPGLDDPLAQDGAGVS

SMILES	pKi [1]	pKi [2]	activity as dual antagonists of both A2A and A1 receptors [2]
Cc1cc(Cn2ncc3c(-c4cccc(C#N)c4F)nc(N)nc32)ccc1N [Compound 206, 3-(6-amino-1-(4-amino-3-methylbenzyl)-1H-pyrazolo[3,4-d]pyrimidine-4-yl)-2-fluorobenzonitrile]	≥ 7.00	> 7.70	potent activity as dual antagonists
N#Cc1cccc(-c2nc(N)nc3c2cnn3Cc2ccc(N)c(C(F)(F)F)c2)c1F [Compound 211, 3-(6-amino-1-(4-amino-3-(trifluoromethyl)benzyl)-1H-pyrazolo[3,4-d]pyrimidine-4-yl)-2-fluorobenzonitrile]	≥ 7.00	> 7.70	potent activity as dual antagonists
N#Cc1cccc(-c2nc(N)nc3c2cnn3Cc2c(F)cccc2F)c1F [Compound 213, 3-(6-amino-1-(2,6-difluorobenzyl)-1H-pyrazolo[3,4-d]pyrimidine-4-yl)-2-fluorobenzonitrile]	≥ 7.00	> 7.70	potent activity as dual antagonists
N#Cc1cccc(-c2nc(N)nc3c2cnn3Cc2ccc(N)cc2)n1 [Compound 215, 6-(6-amino-1-(4-aminobenzyl)-1H-pyrazolo[3,4-d]pyrimidine-4-yl)picolinonitrile]	6.00 to 7.00	6.70 to 7.70	–
N#Cc1cccc(-c2nc(N)nc3c2cnn3Cc2c(F)cc(N)cc2F)n1 [Compound 223, 6-[6-amino-1-[(4-amino-2,6-difluoro-phenyl)methyl]pyrazolo[3,4-d]pyrimidine-4-yl]pyridine-2-carbonitrile]	6.00 to 7.00	> 7.70	–
N#Cc1ccnc(-c2nc(N)nc3c2cnn3Cc2c(F)cc(N)cc2F)c1 [Compound 224, 2-[6-amino-1-[(4-amino-2,6-difluoro-phenyl)methyl]pyrazolo[3,4-d]pyrimidine-4-yl]pyridine-4-carbonitrile]	6.00 to 7.00	6.70 to 7.70	–
N#Cc1cc(-c2nc(N)nc3c2cnn3Cc2c(F)cc(N)cc2F)ccn1 [Compound 226, 4-(6-amino-1-(4-amino-2,6-difluorobenzyl)-1H-pyrazolo[3,4-d]pyrimidine-4-yl)picolinonitrile]	< 5.00	5.30 to 6.00	–
Cc1cc(Cn2ncc3c(-c4cccc(C#N)n4)nc(N)nc32)ccc1N [Compound 227, 6-(6-amino-1-(4-amino-3-methylbenzyl)-1H-pyrazolo[3,4-d]pyrimidine-4-yl)picolinonitrile]	6.00 to 7.00	> 7.70	–
Cc1cc(Cn2ncc3c(-c4cc(C#N)ccn4)nc(N)nc32)ccc1N [Compound 228, 2-(6-amino-1-(4-amino-3-methylbenzyl)-1H-pyrazolo[3,4-d]pyrimidine-4-yl)isonicotinonitrile]	6.00 to 7.00	6.70 to 7.70	–
Cc1cc(Cn2ncc3c(-c4cncc(C#N)c4)nc(N)nc32)ccc1N [Compound 229, 5-(6-amino-1-(4-amino-3-methylbenzyl)-1H-pyrazolo[3,4-d]pyrimidine-4-yl)nicotinonitrile]	< 5.00	5.30 to 6.00	–
Cc1cc(Cn2ncc3c(-c4ccnc(C#N)c4)nc(N)nc32)ccc1N [Compound 230, 4-(6-amino-1-(4-amino-3-methylbenzyl)-1H-pyrazolo[3,4-d]pyrimidine-4-yl)picolinonitrile]	< 5.00	5.30 to 6.00	–
N#Cc1cccc(-c2nc(N)nc3c2cnn3Cc2c(F)cccc2F)n1 [Compound 231, 6-(6-amino-1-(2,6-difluorobenzyl)-1H-pyrazolo[3,4-d]pyrimidine-4-yl)picolinonitrile]	6.00 to 7.00	> 7.70	–
N#Cc1ccnc(-c2nc(N)nc3c2cnn3Cc2c(F)cccc2F)c1 [Compound 232, 2-(6-amino-1-(2,6-difluorobenzyl)-1H-pyrazolo[3,4-d]pyrimidine-4-yl)isonicotinonitrile]	6.00 to 7.00	6.70 to 7.70	–
CCn1c(=O)c2c(nc(/C=C/c3ccc(OC)c(OC)c3)n2C)n(CC)c1=O [Istradefylline, reference compound]	6.00 to 7.00	–	–

Now from value to molecule:

pKi [1]	pKi [2]	activity as dual antagonists of both A2A and A1 receptors [2]	SMILES
≥ 7.00	> 7.70	potent activity as dual antagonists	N#Cc1cccc(-c2nc(N)nc3c2cnn3Cc2ccc(N)cc2F)c1F [Compound 203, 3-(6-amino-1-(4-amino-2-fluorobenzyl)-1H-pyrazolo[3,4-d]pyrimidine-4-yl)-2-fluorobenzonitrile]
6.00 to 7.00	> 7.70	–	Cc1cc(Cn2ncc3c(-c4cccc(C#N)c4)nc(N)nc32)ccc1N [Compound 204, 3-(6-amino-1-(4-amino-3-methylbenzyl)-1H-pyrazolo[3,4-d]pyrimidine-4-yl)benzonitrile]
≥ 7.00	> 7.70	potent activity as dual antagonists	N#Cc1cccc(-c2nc(N)nc3c2cnn3Cc2c(F)cc(N)cc2F)c1 [Compound 207, 3-(6-amino-1-(4-amino-2,6-difluorobenzyl)-1H-pyrazolo[3,4-d]pyrimidine-4-yl)benzonitrile]
6.00 to 7.00	> 7.70	–	N#Cc1cccc(-c2nc(N)nc3c2cnn3Cc2ccc(N)cc2F)c1 [Compound 209, 3-(6-amino-1-(4-amino-2-fluorobenzyl)-1H-pyrazolo[3,4-d]pyrimidine-4-yl)benzonitrile]
5.00 to 6.00	6.00 to 6.70	–	N#Cc1ccnc(-c2nc(N)nc3c2cnn3Cc2ccc(N)cc2)c1 [Compound 216, 2-(6-amino-1-(4-aminobenzyl)-1H-pyrazolo[3,4-d]pyrimidine-4-yl)isonicotinonitrile]
< 5.00	5.30 to 6.00	–	N#Cc1cncc(-c2nc(N)nc3c2cnn3Cc2ccc(N)cc2)c1 [Compound 217, 5-(6-amino-1-(4-aminobenzyl)-1H-pyrazolo[3,4-d]pyrimidine-4-yl)nicotinonitrile]
5.00 to 6.00	5.30 to 6.00	–	N#Cc1cc(-c2nc(N)nc3c2cnn3Cc2ccc(N)cc2)ccn1 [Compound 218, 4-(6-amino-1-(4-aminobenzyl)-1H-pyrazolo[3,4-d]pyrimidine-4-yl)picolinonitrile]
6.00 to 7.00	> 7.70	–	N#Cc1cccc(-c2nc(N)nc3c2cnn3Cc2ccc(N)cc2F)n1 [Compound 219, 6-[6-amino-1-[(4-amino-2-fluoro-phenyl)methyl]pyrazolo[3,4-d]pyrimidine-4-yl]pyridine-2-carbonitrile]
6.00 to 7.00	6.70 to 7.70	–	N#Cc1ccnc(-c2nc(N)nc3c2cnn3Cc2ccc(N)cc2F)c1 [Compound 220, 2-(6-amino-1-(4-amino-2-fluorobenzyl)-1H-pyrazolo[3,4-d]pyrimidine-4-yl)isonicotinonitrile]
< 5.00	5.30 to 6.00	–	N#Cc1cncc(-c2nc(N)nc3c2cnn3Cc2ccc(N)cc2F)c1 [Compound 221, 5-[6-amino-1-[(4-amino-2-fluoro-phenyl)methyl]pyrazolo[3,4-d]pyrimidine-4-yl]pyridine-3-carbonitrile]
< 5.00	5.30 to 6.00	–	N#Cc1cc(-c2nc(N)nc3c2cnn3Cc2ccc(N)cc2F)ccn1 [Compound 222, 4-(6-amino-1-(4-amino-2-fluorobenzyl)-1H-pyrazolo[3,4-d]pyrimidine-4-yl)picolinonitrile]
5.00 to 6.00	5.30 to 6.00	–	N#Cc1cncc(-c2nc(N)nc3c2cnn3Cc2c(F)cc(N)cc2F)c1 [Compound 225, 5-[6-amino-1-[(4-amino-2,6-difluoro-phenyl)methyl]pyrazolo[3,4-d]pyrimidine-4-yl]pyridine-3-carbonitrile]
